Test results published in PubChem BioAssay (NCI).
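Results reflect a 48-hour exposure of cells in 96-well plates to compound at five concentrations. GI50: concentration for 50% inhibition of growth. The concentration for full growth arrest is given as TGI.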

Tests used:
Assay in all cases: NCI anticancer screen, dose series, 48 h
COLO 205 colon = test system: COLO 205 colon
HOP-92 NSCLC = test system: HOP-92 NSCLC
CAKI-1 renal = test system: CAKI-1 renal
UACC-62 melanoma = test system: UACC-62 melanoma
SN12C renal = test system: SN12C renal
MDA-MB-231 breast = test system: MDA-MB-231 breast
SK-MEL-5 melanoma = test system: SK-MEL-5 melanoma
HCC-2998 colon = test system: HCC-2998 colon
HT29 colon = test system: HT29 colon
A549 NSCLC = test system: A549 NSCLC
SK-OV-3 ovarian = test system: SK-OV-3 ovarian
OVCAR-8 ovarian = test system: OVCAR-8 ovarian
K-562 leukemia = test system: K-562 leukemia
NCI/ADR-RES ovarian = test system: NCI/ADR-RES ovarian
NCI-H23 lung = test system: NCI-H23 lung
HOP-62 NSCLC = test system: HOP-62 NSCLC
M14 melanoma = test system: M14 melanoma
U251 CNS = test system: U251 CNS
MCF7 breast = test system: MCF7 breast
HS 578T breast = test system: HS 578T breast
UO-31 renal = test system: UO-31 renal
DU-145 prostate = test system: DU-145 prostate
NCI-H460 lung = test system: NCI-H460 lung
ACHN renal = test system: ACHN renal
SNB-75 CNS = test system: SNB-75 CNS
RXF 393 renal = test system: RXF 393 renal
NCI-H522 lung = test system: NCI-H522 lung
T-47D breast = test system: T-47D breast
RPMI-8226 leukemia = test system: RPMI-8226 leukemia
OVCAR-5 ovarian = test system: OVCAR-5 ovarian
MOLT-4 leukemia = test system: MOLT-4 leukemia
SF-268 CNS = test system: SF-268 CNS
SF-539 CNS = test system: SF-539 CNS
HCT-15 colon = test system: HCT-15 colon
A498 renal = test system: A498 renal
MALME-3M melanoma = test system: MALME-3M melanoma
BT-549 breast = test system: BT-549 breast
SR leukemia = test system: SR leukemia
OVCAR-3 ovarian = test system: OVCAR-3 ovarian
SK-MEL-28 melanoma = test system: SK-MEL-28 melanoma
SNB-19 CNS = test system: SNB-19 CNS
SW-620 colon = test system: SW-620 colon
CCRF-CEM leukemia = test system: CCRF-CEM leukemia
PC-3 prostate = test system: PC-3 prostate
SK-MEL-2 melanoma = test system: SK-MEL-2 melanoma
EKVX NSCLC = test system: EKVX NSCLC
UACC-257 melanoma = test system: UACC-257 melanoma
TK-10 renal = test system: TK-10 renal
KM12 colon = test system: KM12 colon
HCT-116 colon = test system: HCT-116 colon
MDA-MB-435 = test system: MDA-MB-435
786-0 renal = test system: 786-0 renal

In the case of `O=C(/C=C/c1cccs1)c1ccc(Cl)cc1Cl`, the GI50 (COLO 205 colon) is reported as 27.1 µM, the TGI (COLO 205 colon) is reported as 88.9 µM and the GI50 (HOP-92 NSCLC) is reported as 23.8 µM. It also gave a TGI (HOP-92 NSCLC) of 61.4 µM, a GI50 (CAKI-1 renal) of 20.9 µM and a TGI (CAKI-1 renal) of 43.1 µM. It also gave a GI50 (UACC-62 melanoma) of 13.4 µM, a TGI (UACC-62 melanoma) of 26.4 µM and a GI50 (SN12C renal) of 16.4 µM. The TGI (SN12C renal) was 31.2 µM, the GI50 (MDA-MB-231 breast) was 14.3 µM and the TGI (MDA-MB-231 breast) was 28.1 µM. For the same molecule, the GI50 (SK-MEL-5 melanoma) was 15 µM, the TGI (SK-MEL-5 melanoma) was 28.8 µM and the GI50 (HCC-2998 colon) was 19.2 µM. The TGI (HCC-2998 colon) was 34.8 µM, the GI50 (HT29 colon) was 28.1 µM and the TGI (HT29 colon) was > 100 µM. For the same molecule, the GI50 (A549 NSCLC) was 17.3 µM, the TGI (A549 NSCLC) was 36.4 µM and the GI50 (SK-OV-3 ovarian) was 25.5 µM. It also gave a TGI (SK-OV-3 ovarian) of 55.3 µM, a GI50 (OVCAR-8 ovarian) of 19.4 µM and a TGI (OVCAR-8 ovarian) of 48.3 µM. For the same molecule, the GI50 (K-562 leukemia) was 19.1 µM, the TGI (K-562 leukemia) was 56.4 µM and the GI50 (NCI/ADR-RES ovarian) was 31.4 µM. For the same molecule, the TGI (NCI/ADR-RES ovarian) was > 100 µM, the GI50 (NCI-H23 lung) was 17.1 µM and the TGI (NCI-H23 lung) was 33.6 µM. For the same molecule, the GI50 (HOP-62 NSCLC) was 19.4 µM, the TGI (HOP-62 NSCLC) was 37.7 µM and the GI50 (M14 melanoma) was 19.8 µM. It also gave a TGI (M14 melanoma) of 40.5 µM, a GI50 (U251 CNS) of 14.6 µM and a TGI (U251 CNS) of 28.1 µM. It also gave a GI50 (MCF7 breast) of 18.4 µM, a TGI (MCF7 breast) of 51.6 µM and a GI50 (HS 578T breast) of 24.5 µM. It also gave a TGI (HS 578T breast) of 55.9 µM, a GI50 (UO-31 renal) of 18.5 µM and a TGI (UO-31 renal) of 34.2 µM. It also gave a GI50 (DU-145 prostate) of 20 µM, a TGI (DU-145 prostate) of 43.7 µM and a GI50 (NCI-H460 lung) of 18 µM. The TGI (NCI-H460 lung) was 37.1 µM, the GI50 (ACHN renal) was 17.4 µM and the TGI (ACHN renal) was 31.3 µM. For the same molecule, the GI50 (SNB-75 CNS) was 18.1 µM, the TGI (SNB-75 CNS) was 35.9 µM and the GI50 (RXF 393 renal) was 19.4 µM. It also gave a TGI (RXF 393 renal) of 38.4 µM, a GI50 (NCI-H522 lung) of 17.4 µM and a TGI (NCI-H522 lung) of 36.5 µM. For the same molecule, the GI50 (T-47D breast) was 28.6 µM, the TGI (T-47D breast) was > 100 µM and the GI50 (RPMI-8226 leukemia) was 27.7 µM. For the same molecule, the TGI (RPMI-8226 leukemia) was > 100 µM, the GI50 (OVCAR-5 ovarian) was 20.1 µM and the TGI (OVCAR-5 ovarian) was 39 µM. It also gave a GI50 (MOLT-4 leukemia) of 18.8 µM, a TGI (MOLT-4 leukemia) of 51.9 µM and a GI50 (SF-268 CNS) of 19.1 µM. For the same molecule, the TGI (SF-268 CNS) was 39 µM, the GI50 (SF-539 CNS) was 19.8 µM and the TGI (SF-539 CNS) was 38.6 µM. The GI50 (HCT-15 colon) was 14.7 µM, the TGI (HCT-15 colon) was 32.4 µM and the GI50 (A498 renal) was 17.9 µM. It also gave a TGI (A498 renal) of 32.7 µM, a GI50 (MALME-3M melanoma) of 1.04 µM and a TGI (MALME-3M melanoma) of 19.8 µM. It also gave a GI50 (BT-549 breast) of 19.3 µM, a TGI (BT-549 breast) of 39.9 µM and a GI50 (SR leukemia) of 15 µM. For the same molecule, the TGI (SR leukemia) was 77.3 µM, the GI50 (OVCAR-3 ovarian) was 19 µM and the TGI (OVCAR-3 ovarian) was 36.4 µM. The GI50 (SK-MEL-28 melanoma) was 22.4 µM, the TGI (SK-MEL-28 melanoma) was 52.7 µM and the GI50 (SNB-19 CNS) was 24 µM. For the same molecule, the TGI (SNB-19 CNS) was 64.2 µM, the GI50 (SW-620 colon) was 18.8 µM and the TGI (SW-620 colon) was 37.1 µM. For the same molecule, the GI50 (CCRF-CEM leukemia) was 32.1 µM, the TGI (CCRF-CEM leukemia) was 97.1 µM and the GI50 (PC-3 prostate) was 33.2 µM. The TGI (PC-3 prostate) was > 100 µM, the GI50 (SK-MEL-2 melanoma) was 17.5 µM and the TGI (SK-MEL-2 melanoma) was 35 µM. The GI50 (EKVX NSCLC) was 18.6 µM, the TGI (EKVX NSCLC) was 36.7 µM and the GI50 (UACC-257 melanoma) was 16.6 µM. It also gave a TGI (UACC-257 melanoma) of 31.9 µM, a GI50 (TK-10 renal) of 25.3 µM and a TGI (TK-10 renal) of 61.1 µM. For the same molecule, the GI50 (KM12 colon) was 19.1 µM, the TGI (KM12 colon) was 40 µM and the GI50 (HCT-116 colon) was 14 µM. The TGI (HCT-116 colon) was 30.8 µM, the GI50 (MDA-MB-435) was 17.7 µM and the TGI (MDA-MB-435) was 35.2 µM. The GI50 (786-0 renal) was 16.6 µM and the TGI (786-0 renal) was 33.9 µM.
